Common to all, as to assay: inhibition of tumour cell growth, NCI panel, 48 h
The subject of assay [1] is SK-MEL-2 melanoma.
The test system of assay [2] is NCI/ADR-RES ovarian.
Assay [3] has as its system ACHN renal.
The subject of assay [4] is OVCAR-3 ovarian.
For assay [5], the system named is TK-10 renal.
Assay [6] relates to SNB-75 CNS.
The test system of assay [7] is UACC-257 melanoma.
The subject of assay [8] is A498 renal.
In assay [9] the test system is HOP-92 NSCLC.
The test system of assay [10] is UO-31 renal.

Structures are written as SMILES. Several values for one entry are separate records, joined by “and”; a condition that tells them apart may be missing. Equal values may be shown once.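 The compound was tested at five concentrations on cells cultured in 96-well plates, with a 48-hour exposure period. Abbreviation: GI50, concentration required for 50% inhibition of growth. The concentration for full growth arrest is given as TGI.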

As for `O=C1/C(=C\c2ccc(F)cc2)CN(C(=O)c2ccc([N+](=O)[O-])cc2)C/C1=C\c1ccc(F)cc1`, the GI50 is 20.4 µM in [1]; 3.65 µM in assay [2]; 2.46 µM in assay [3]; 2.69 µM in assay [4]; 5.05 µM in assay [5]; 7.66 µM in [6]. Also, the GI50 in [7] is 4.17 µM; in assay [8], 4.4 µM; in [9], 11.4 µM; in [10], 1.69 µM. The TGI in [1] is over 100 µM; in assay [2], over 100 µM; in [3] it was 7.49 µM; in [4], 7.53 µM; in [5], 82.7 µM; in assay [6], over 93 µM. For the same compound, the TGI in assay [7] was 28.1 µM; in [8] it was 47 µM; in [9], over 100 µM; in [10], 6.99 µM.

Regarding `CCNCCC1(CC)C(=O)NC(=O)NC1=O`, the TGI in assay [1], in assay [2], in assay [3], in assay [4], in assay [5] and in assay [6] was over 100 µM each time. For the same compound, the TGI in [7], in [8], in assay [9] and in assay [10] was over 100 µM throughout.

With `CCN(CC)CC.CCOc1ccc(NC(=O)N=C=[N-])cc1.[CH-]1CCCCC1.[CH-]1CCCCC1.[CH-]1CCCCC1.[Cl-].[Sn+4]`, the GI50 in assay [1] was 0.0376 µM; in assay [2], 0.0221 µM; in assay [3], 0.0493 µM; in [4], 0.0171 µM; in assay [5], 0.0458 µM; in assay [6], 0.0244 µM. Besides, the GI50 in [7] is 0.0389 µM; in [8], 0.0423 µM; in [9], 0.0264 µM; in assay [10], 0.0452 µM. Moreover, the TGI in assay [1] came out at 0.0964 µM; in assay [2] it was 0.0559 µM; in assay [3], 0.116 µM; in [4] it was 0.038 µM; in assay [5] it was 0.116 µM; in [6] it was 0.108 µM. For the same compound, the TGI in assay [7] was 0.12 µM; in assay [8], 0.0959 µM; in [9] it was 0.111 µM; in assay [10] it was 0.0928 µM.

With `C=CC(=O)N1C/C(=C\c2ccccc2)C(=O)/C(=C/c2ccccc2)C1`, the TGI is 4.81 µM in assay [1]; over 27.1 µM in [2]; 4.53 µM in assay [3]; 4.47 µM in assay [4]; 7 µM in assay [5]; 10 µM in [6]. Besides, the TGI in assay [7] was found to be 4.29 µM; in assay [8] it was 4.03 µM; in [9], 8.64 µM; in [10] it was 3.43 µM.

For `O=C(c1ccc(OCCN2CCCCC2)cc1)c1c(-c2ccc(O)cc2)sc2cc(O)ccc12`, the GI50 in assay [1] was 15.8 µM and 14.9 µM; in [2], 7.72 µM and 17.7 µM; in assay [3], 13.5 µM and 14.7 µM; in [4] it was 10 µM and 14 µM; in assay [5], 16.7 µM and 16.3 µM; in assay [6], 7.55 µM and 8.56 µM. Further, the GI50 was 2.82 µM and 3.52 µM in [7]; 11.6 µM in assay [8]; 1.43 µM and 5.51 µM in assay [9]; 10.1 µM and 9.8 µM in assay [10]. Moreover, the TGI is 35.2 µM and 33.8 µM in assay [1]; 23.1 µM and 42.6 µM in assay [2]; 27.2 µM and 28.2 µM in [3]; 21.7 µM and 31.5 µM in [4]; 31.8 µM and 33.3 µM in assay [5]; 20.6 µM and 23.6 µM in assay [6]. Besides, the TGI in assay [7] is 10.8 µM and 10.5 µM; in assay [8], 26.2 µM; in [9], 6.72 µM and 29 µM; in assay [10], 22.3 µM and 27.7 µM.

As to `COc1ccc(-c2nsc3c2NC(=O)CC3c2ccc(F)cc2)cc1` (stereo not given), the GI50 in assay [1] was 3.22 µM; in [2], 2.57 µM; in assay [3] it was 6.73 µM; in assay [4] it was 3.79 µM; in [5], 6.88 µM; in assay [6] it was 2.35 µM. The GI50 was 16.6 µM in [7], 2.37 µM in assay [8], 1.77 µM in assay [9] and 4.59 µM in assay [10]. Also, the TGI is 12 µM in assay [1]; over 26.9 µM in [2]; over 100 µM in assay [3]; over 100 µM in assay [4]; over 100 µM in assay [5]; 15.7 µM in assay [6]. The TGI was over 100 µM in assay [7], over 100 µM in assay [8], 23.7 µM in assay [9] and over 100 µM in [10].

As for `Cc1ccc(S(=O)(=O)Oc2ccc([N+](=O)[O-])cc2[N+](=O)[O-])cc1`, the GI50 in assay [1] was 4.31 µM; in assay [2], 5.31 µM; in assay [3] it was 7.64 µM; in [4], 3.24 µM; in assay [5] it was 4.54 µM; in assay [6], 6.77 µM. For the same compound, the GI50 in [7] was 2.77 µM; in assay [8] it was 11.8 µM; in assay [9], 4.34 µM; in [10], 2.48 µM. The TGI in assay [1] was 16.6 µM; in assay [2], 38 µM; in assay [3], 22.5 µM; in assay [4] it was 11.5 µM; in assay [5], 17.4 µM; in assay [6], 21.3 µM. For the same compound, the TGI in [7] was 12.2 µM; in assay [8] it was 24.9 µM; in assay [9] it was 21.7 µM; in assay [10], 9.26 µM.

For `O=C(N/N=C/c1ccccc1O)C(O)(c1ccccc1)c1ccccc1`, the GI50 in assay [1] was 53.1 µM; in [2], 7.65 µM; in assay [3], 8.43 µM; in assay [4], 2.66 µM; in assay [5] it was over 100 µM; in assay [6], over 100 µM. The GI50 in assay [7] was 5.99 µM; in assay [8] it was over 100 µM; in assay [9], over 100 µM; in [10] it was 2 µM. For the same compound, the TGI in assay [1], in [2], in assay [3], in assay [4], in [5] and in [6] was over 100 µM throughout. For the same compound, the TGI in assay [7], in [8], in assay [9] and in [10] was over 100 µM each time.

(Values after PubChem BioAssay (NCI).)
